Laboratory results published in patent publication US8853276B2, “Guanidine derivatives in cinnamic series” (Produits Chimiques Auxiliaires et de Synthese, priority 2010, dated 2014).

Tested on: fibrillin-1
Assay: Anti-glycation study on skin explants: fibrillin-1 immunolabeling with image analysis
Format: cell-based, human
Details: for Fibrillin-1 (% of surface area under the dermo-epidermal junction), Mean: topical 2 mg per explant on D0, D3, D5, D7, aminoguanidine at 0.15%, compound 29 at 1%
Protocol: The anti-aging properties of a derivative according to the invention were evaluated by performing a comparative study of the anti-glycation activity of several compounds.
From an arm of a person, 21 explants (about 10 mm in diameter) were prepared and placed under survival conditions in BEM specific medium (BIO-EC's Explants Medium).
The explants were divided into seven batches of three explants:
Methylglyoxal was incorporated into the survival medium on D3, D5 and D7.
Compound 29 and the reference, aminoguanidine, were applied topically at a rate of 2 mg per explant on D0, D3, D5 and D7.
The controls (batches T0 and T) received no treatment.
On D0, the three explants of batch T0 were sampled and divided into two. One half was fixed with buffered formaldehyde and the other half was frozen at −80° C. On D9, three explants from each batch were sampled and treated in the same manner.
After 24 hours of fixing in the buffered formaldehyde, the samples were dehydrated and impregnated with paraffin using a Leica 1020 dehydration robot. They were embedded using a Leica EG 1160 coating station. 5 μm slices were produced using a Minot Leica RM 2125 microtome and bonded to Superfrost® histological glass slides.
The nuclei were stained with propidium iodide. The labeling was quantified by image analysis measurements with the Q-WIN Leica system.

[1] = D9 with methylglyoxal (in survival medium D3, D5, D7)
[2] = D9 with methylglyoxal, relative to the control batch T without methylglyoxal

| Compound | Fibrillin-1 (% of surface area under the dermo-epidermal junction), Mean [1] | increase in the percentage of surface area occupied by fibrillin-1 under the dermo-epidermal junction [2] | Fibrillin-1 (% of surface area under the dermo-epidermal junction), Mean (D9 without methylglyoxal) | reduction of the methylglyoxal-induced decrease in the expression of fibrillin-1 (D9, treatment in the presence of methylglyoxal) | expression of fibrillin-1 (labeling, observation) (D9 in the presence of methylglyoxal, compared with control batch T MG) | decrease in the percentage of surface area occupied by fibrillin-1 under the dermo-epidermal junction [2] |
| --- | --- | --- | --- | --- | --- | --- |
| COc1cc(/C=C/C(=O)NNC(=N)N)ccc1O [Compound 29, imino{2-[(2E)-3-(4-hydroxy-3-methoxyphenyl)prop-2-enoyl]hydrazino}methanaminium nitrate] | 27.7% | 17% | 21.53% |  |  |  |
| N=C(N)NN [aminoguanidine, Aminoguanidine] | 21.0% |  | 28.3% | 49% | very sharp and greater than that observed on the control batch T MG with methylglyoxal | 12% |
| CC(=O)C=O [methylglyoxal, Methylglyoxal] |  |  |  |  |  | 23% |
